The assay concerns the target T1, PHD2 (Homo sapiens, UniProt Q9GZT9).
T1 construct: FLAG-tagged full length PHD2 expressed in and purified from baculovirus-infected Sf9 cells; FLAG; made in house; host or cells: baculovirus-infected Sf9 cells
Briefly: PHD2 / HIF-1α peptide hydroxylation assay, time resolved fluorescence (VHL complex detection). The format is biochemical. As to conditions: FLAG-tagged full length PHD2; 0.2 μM 2-oxoglutarate, 0.5 μM HIF-1α peptide; read-out: PHD2 Activity (PHD2 binding activity expressed as IC50 (nM)). Summed up: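 Sf9-expressed FLAG-tagged full-length PHD2 (0.15 μg/ml) preincubated with compound 30 min at room temperature in Tris pH 7.4 buffer with 10 μM ferrous sulfate, 1 mM ascorbate and catalase. Reaction started with 0.2 μM 2-oxoglutarate and 0.5 μM biotinylated HIF-1α peptide (final); hydroxylation detected by time-resolved fluorescence via VHL complex binding.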

T1 sequence (Q9GZT9 whole entry): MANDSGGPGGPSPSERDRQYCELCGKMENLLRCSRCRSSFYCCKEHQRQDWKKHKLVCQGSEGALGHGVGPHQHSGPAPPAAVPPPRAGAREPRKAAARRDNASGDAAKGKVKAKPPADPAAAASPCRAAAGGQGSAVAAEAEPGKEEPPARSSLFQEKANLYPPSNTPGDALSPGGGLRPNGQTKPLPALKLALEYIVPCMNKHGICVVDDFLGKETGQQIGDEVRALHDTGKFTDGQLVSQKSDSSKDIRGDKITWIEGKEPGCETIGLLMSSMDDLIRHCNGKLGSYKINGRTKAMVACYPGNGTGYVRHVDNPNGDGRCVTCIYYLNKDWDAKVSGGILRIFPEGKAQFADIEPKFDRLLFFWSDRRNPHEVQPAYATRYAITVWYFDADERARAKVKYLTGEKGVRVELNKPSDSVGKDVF

Take `CC(C)(O)[C@H](NC(=O)c1cnc(-n2cccn2)nc1O)c1ccccc1` [Example 128, 4-hydroxy-N-[(1R)-2-hydroxy-2-methyl-1-phenylpropyl]-2-(1H-pyrazol-1-yl)pyrimidine-5-carboxamide]: the IC50 was at most 10 nM. For `C[C@H](NC(=O)c1cnc(-c2cccnn2)nc1O)c1ccc2c(c1)OCCO2` [Example 140, N-[(1S)-1-(2,3-dihydro-1,4-benzodioxin-6-yl)ethyl]-4-hydroxy-2-(pyridazin-3-yl)pyrimidine-5-carboxamide], the IC50 is at most 10 nM. Turning to `Cc1cc(C)n(-c2ncc(C(=O)NCc3ccc(OC(F)(F)F)cc3)c(O)n2)n1` [Example 44, 2-(3,5-Dimethyl-1H-pyrazol-1-yl)-4-hydroxy-N-[4-(trifluoromethoxy)benzyl]pyrimidine-5-carboxamide], the IC50 lay within 100 to 1000 nM.

With `N#Cc1ccc(C(NC(=O)c2cnc(-c3cccnn3)nc2O)C2CCCCC2)cc1` (single isomer, unassigned) [Example 162, N-[(4-cyanophenyl)(cyclohexyl)methyl]-4-hydroxy-2-(pyridazin-3-yl)pyrimidine-5-carboxamide], the IC50 was 100 to 1000 nM. The result for `C[C@H](NC(=O)c1cnc(-n2cccn2)nc1O)c1ccc2c(c1)OCCO2` [Example 132, N-[(1S)-1-(2,3-dihydro-1,4-benzodioxin-6-yl)ethyl]-4-hydroxy-2-(1H-pyrazol-1-yl)pyrimidine-5-carboxamide] reads at most 10 nM; that for `C[C@H](NC(=O)c1cnc(-c2cccnn2)nc1O)c1ccc(Br)cc1` [Example 25, N-[(1S)-1-(4-bromophenyl)ethyl]-4-hydroxy-2-pyridazin-3-ylpyrimidine-5-carboxamide], at most 10 nM. Then `C[C@H](NC(=O)c1cnc(-n2cccn2)nc1O)c1ccc(C#N)cc1` [Example 113, N-[(1S)-1-(4-cyanophenyl)ethyl]-4-hydroxy-2-(1H-pyrazol-1-yl)pyrimidine-5-carboxamide], with at most 10 nM. On to `CCC(CC)(NC(=O)c1cnc(-n2cccn2)nc1O)c1ccccc1` [Example 98, N-(1-ethyl-1-phenylpropyl)-4-hydroxy-2-(1H-pyrazol-1-yl)pyrimidine-5-carboxamide], for which the IC50 was at most 10 nM. Take `COc1ccc(C(NC(=O)c2cnc(-c3cccnn3)nc2O)c2ccc(F)cc2)c(OC)c1` (stereo not shown) [Example 176, N-[(2,4-dimethoxyphenyl)(4-fluorophenyl)methyl]-4-hydroxy-2-(pyridazin-3-yl)pyrimidine-5-carboxamide]: the IC50 was at most 10 nM. As for `O=C(NCc1ccc(-c2ccc(F)cc2)nc1)c1cnc(-n2cccn2)nc1O` [Example 108, N-{[6-(4-fluorophenyl)pyridin-3-yl]methyl}-4-hydroxy-2-(1H-pyrazol-1-yl)pyrimidine-5-carboxamide], the IC50 was at most 10 nM. Regarding `Cc1nc(-c2ncc(C(=O)NC(c3ccccc3)c3ccccc3)c(O)n2)cs1` [Example 39, N-(diphenylmethyl)-4-hydroxy-2-(2-methyl-1,3-thiazol-4-yl)pyrimidine-5-carboxamide], the concentration for half-maximal inhibition (IC50) was 10 to 100 nM. On to `CC(C)(C)C1CCC(NC(=O)c2cnc(-n3cccn3)nc2O)CC1` (stereo not shown) [Example 82, N-(4-tert-butylcyclohexyl)-4-hydroxy-2-(1H-pyrazol-1-yl)pyrimidine-5-carboxamide], for which the IC50 was in the range of 10 to 100 nM.

As for `Cc1ccc([C@@H](C)NC(=O)c2cnc(-n3cccn3)nc2O)cc1` [Example 78, 4-Hydroxy-N-[(1R)-1-(4-methylphenyl)ethyl]-2-(1H-pyrazol-1-yl)pyrimidine-5-carboxamide], the IC50 lay in the range of 10 to 100 nM. With `COc1ccc(C(NC(=O)c2cnc(-c3cccnn3)nc2O)c2ccc(OC)cc2OC)c(OC)c1` [Example 174, N-[bis(2,4-dimethoxyphenyl)methyl]-4-hydroxy-2-(pyridazin-3-yl)pyrimidine-5-carboxamide], the IC50 was at most 10 nM. In the case of `O=C(NCc1ccc(-c2ccccc2Cl)cc1)c1cnc(-n2cccn2)nc1O` [Example 62, N-[(2′-chlorobiphenyl-4-yl)methyl]-4-hydroxy-2-(1H-pyrazol-1-yl)pyrimidine-5-carboxamide], the IC50 was at most 10 nM.

`C[C@H](NC(=O)c1cnc(-n2cccn2)nc1O)c1ccc2ccccc2c1` [Example 121, 4-hydroxy-N-[(1S)-1-(naphthalen-2-yl)ethyl]-2-(1H-pyrazol-1-yl)pyrimidine-5-carboxamide]: the IC50 was at most 10 nM. For `N#Cc1ccc(CNC(=O)c2cnc(-n3cccn3)nc2O)cn1` [Example 110, N-[(6-cyanopyridin-3-yl)methyl]-4-hydroxy-2-(1H-pyrazol-1-yl)pyrimidine-5-carboxamide], the IC50 lay in the range of 10 to 100 nM. The result for `CC(NC(=O)c1cnc(-n2cccn2)nc1O)[C@]12C[C@H]3C[C@H](C[C@H](C3)C1)C2` (stereo partly drawn) [Example 90, N-{(1R)-1-[(3S,5S,7S)-1-adamantyl]ethyl}-4-hydroxy-2-(1H-pyrazol-1-yl)pyrimidine-5-carboxamide] reads 10 to 100 nM. `Cc1cccc(-c2ncc(C(=O)NCc3ccc(-c4ccccc4)cc3)c(O)n2)n1` [Example 15, N-(biphenyl-4-ylmethyl)-4-hydroxy-2-(6-methylpyridin-2-yl)pyrimidine-5-carboxamide]: the IC50 fell in the range of 100 to 1000 nM. The result for `COc1ccc(C(NC(=O)c2cnc(-c3cccnn3)nc2O)c2ccc(OC(F)(F)F)cc2)cc1` (single isomer, unassigned) [Example 152, 4-hydroxy-N-{(4-methoxyphenyl)[4-(trifluoromethoxy)phenyl]methyl}-2-(pyradazin-3-yl)pyrimidine-5-carboxamide] reads at most 10 nM. Consider `COc1ccc(C(NC(=O)c2cnc(-c3cccnn3)nc2O)c2ccc(OC)cc2C)c(C)c1` [Example 175, N-[bis(4-methoxy-2-methylphenyl)methyl]-4-hydroxy-2-(pyridazin-3-yl)pyrimidine-5-carboxamide], for which the IC50 is at most 10 nM. With `Cc1nc(-c2ncc(C(=O)NCCc3ccc(F)cc3)c(O)n2)cs1` [Example 32, N-[2-(4-fluorophenyl)ethyl]-4-hydroxy-2-(2-methyl-1,3-thiazol-4-yl)pyrimidine-5-carboxamide], the IC50 is 100 to 1000 nM.

As for `O=C(NCc1ccc(-c2ccccc2)nc1)c1cnc(-n2cccn2)nc1O` [Example 105, 4-Hydroxy-N-[(6-phenylpyridin-3-yl)methyl]-2-(1H-pyrazol-1-yl)pyrimidine-5-carboxamide], the IC50 was at most 10 nM. In the case of `O=C(NCc1cccc(-c2ccccc2)c1)c1cnc(-n2cccn2)nc1O` [Example 53, N-(biphenyl-3-ylmethyl)-4-hydroxy-2-(1H-pyrazol-1-yl)pyrimidine-5-carboxamide], the IC50 was at most 10 nM. As for `CC[C@H](NC(=O)c1cnc(-n2cc(C)cn2)nc1O)c1ccccc1` [Example 133, 4-hydroxy-2-(4-methyl-1H-pyrazol-1-yl)-N-[(1S)-1-phenylpropyl]pyrimidine-5-carboxamide], the IC50 was at most 10 nM.

As usually defined, the IC50 is the concentration that gives 50% inhibition.
